# Values of other authors, collected in US11638760B2, “Pyrrolobenzodiazepine antibody conjugates” (priority 2017, dated 2023).
# Settings: Phase I clinical evaluation
smiles,measurement,value
C=C1C[C@H]2C=Nc3cc(OCCCOc4cc5c(cc4OC)C(=O)N4CC(=C)C[C@H]4C=N5)c(OC)cc3C(=O)N2C1 [SJG-136],maximum tolerated dose,45 μg/m
